Earlier results as cited in patent publication US20220008839A1, “SEMI-AQUEOUS METHOD FOR EXTRACTING A SUBSTANCE” (Clean Imagineering LLC, priority 2020, published 2022).

SMILES	water solubility (at 20° C.)	solubility in ethyl acetate (ethyl acetate)	solubility in water	solubility in ethanol (an alcohol such as ethanol)
CCOC(C)=O [ethyl acetate]	86 g/L	–	–	–
CC(C)=CCC/C(C)=C/C=C/C(C)=C/C=C/C(C)=C/C=C/C=C(C)/C=C/C=C(C)/C=C/C=C(\C)CCC=C(C)C [Lycopene]	–	freely soluble	insoluble in water	–
C=C(C)[C@@H]1CC[C@]2(CO)CC[C@]3(C)[C@H](CC[C@@H]4[C@@]5(C)CC[C@H](O)C(C)(C)[C@@H]5CC[C@]43C)[C@@H]12 [Betulin]	–	–	insoluble in water	highly soluble
